# Test results from patent US6235284A, “Synthetic polypeptides belonging to the hepatitis C virus (HCV) and which can be used especially for detecting the latter” (Bio Merieux, priority 1992, dated 2001).
# Tested on: anti-HCV antibodies (HCV-positive sera)
# Experiment: ELISA detection of anti-HCV antibodies in HCV-positive sera with adsorbed peptides
# Format: binding, human
# Experimental: The reactivity of these three peptides towards the sera of individuals infected with the hepatitis C virus, termed (HCV) positive, was evaluated in an ELISA test according to the procedure described below.
# Detection of anti-HCV Antibodies by ELISA
# The wells of a microtiter plate of "NUNC MAXISORB™" trademark are saturated with 100 μl of a solution containing the peptide or a mixture of peptides (10 μg/ml) for 2 hours at 37° C. The plate is then emptied, then washed with a wash buffer containing 0.05% TWEEN™ 20(polysorbate 20). The wells are saturated with 100 μl of wash buffer supplemented with 10% goat serum (v/v), then incubated for 30 minutes at 37° C., then washed again as above. The sera to be analyzed are diluted to the appropriate dilution with saturation buffer. The incubation of the sera is 1 hour at 37° C. The wells are again washed. The solution of conjugate (goat IgG to human IgG labelled with peroxidase) at a dilution of 1/1000 in the saturation buffer is then added and the incubation lasts for 90 minutes at 37° C. After washing, the solution of orthophenylenediamine substrate is added. After 10 minutes, the reaction is stopped with 50 μl of H2 SO4 and the optical density is read at 492 nm. It should be noted that all the tests were carried out in duplicate.
# For that, the different peptides are adsorbed on the microplates at a concentration of 10 μg/ml and the sera are used at 1/100 dilution.
# The values obtained, which are collated in Table 1 below, correspond to the optical density (OD) multiplied by 10^3, at 492 nm.
# For each serum the experiment was carried out in duplicate. The **** are values outside the upper scale.
# The different peptides are absorbed onto microplates at a concentration of 10 μg/ml and the sera are used at the dilution stated.
# The values obtained, which are collated in Table 2 below, correspond to the optical density at 492 nm. All the experiments were carried out in duplicate.
# Each serum was, in a first instance, tested at the dilution 1/100.
# The values given correspond to the optical density read at 492 nm multiplied by the factor 10^3.
substance,measurement,setting,value
K22Y: peptide corresponding to the amino acid sequence 12 to 35 of the CORE protein (KRNTNRRPQDVKFPGGGQIVGGVY),optical density at 492 nm,"Table 4, serum A 8, 1/1000",431 OD × 10^3
same,optical density at 492 nm,"Table 4, serum A 8, 1/10,000",56 OD × 10^3
same,optical density at 492 nm,"Table 4, serum A 9, 1/100",2152 OD × 10^3
same,optical density at 492 nm,"Table 4, serum A 9, 1/1000",282 OD × 10^3
same,optical density at 492 nm,"Table 4, serum A 9, 1/10,000",43 OD × 10^3
same,optical density at 492 nm,"Table 4, serum A 10, 1/100",2114 OD × 10^3
same,optical density at 492 nm,"Table 4, serum A 10, 1/1000",207 OD × 10^3
same,optical density at 492 nm,"Table 4, serum A 10, 1/10,000",26 OD × 10^3
same,optical density at 492 nm,"Table 4, serum A 11, 1/100",1878 OD × 10^3
same,optical density at 492 nm,"Table 4, serum A 11, 1/1000",212 OD × 10^3
same,optical density at 492 nm,"Table 4, serum A 11, 1/10,000",31 OD × 10^3
same,optical density at 492 nm,"Table 4, serum A 12, 1/1000",646 OD × 10^3
same,optical density at 492 nm,"Table 4, serum A 12, 1/10,000",62 OD × 10^3
same,optical density at 492 nm,"Table 4, serum B 3, 1/100",2033 OD × 10^3
same,optical density at 492 nm,"Table 4, serum P 1, 1/100",435 OD × 10^3
same,optical density at 492 nm,"Table 4, serum P 2, 1/100",666 OD × 10^3
same,optical density at 492 nm,"Table 4, serum P 3, 1/100",1031 OD × 10^3
same,optical density at 492 nm,"Table 4, serum P 4, 1/1000",1959 OD × 10^3
same,optical density at 492 nm,"Table 4, serum P 4, 1/10,000",300 OD × 10^3
same,optical density at 492 nm,"Table 4, serum P 5, 1/10,000",394 OD × 10^3
same,optical density at 492 nm,"Table 4, serum P 7, 1/10,000",1487 OD × 10^3
same,optical density at 492 nm,"Table 4, serum P 8, 1/1000",2257 OD × 10^3
same,optical density at 492 nm,"Table 4, serum P 8, 1/10,000",335 OD × 10^3
same,optical density at 492 nm,"Table 4, serum P 10, 1/100",66 OD × 10^3
same,optical density at 492 nm,"Table 4, serum P 14, 1/10,000",398 OD × 10^3
same,optical density at 492 nm,"Table 4, serum P 16, 1/1000",610 OD × 10^3
same,optical density at 492 nm,"Table 4, serum P 16, 1/10,000",75 OD × 10^3
same,optical density at 492 nm,"Table 4, serum P 17, 1/100",1930 OD × 10^3
same,optical density at 492 nm,"Table 4, serum P 23, 1/100",125 OD × 10^3
same,optical density at 492 nm,"Table 4, serum P 24, 1/100",735 OD × 10^3
same,optical density at 492 nm,"Table 4, serum P 29, 1/100",310 OD × 10^3
same,optical density at 492 nm,"Table 4, serum P 30, 1/100",1805 OD × 10^3
K32G: peptide corresponding to the amino acid sequence 12 to 45 of the CORE protein (KRNTNRRPQDVKFPGGGQIVGGVYLLPRRGPTLG),optical density at 492 nm,"Table 5, serum A8, 1/10,000",666 OD × 10^3
same,optical density at 492 nm,"Table 5, serum A 9, 1/1000",1675 OD × 10^3
same,optical density at 492 nm,"Table 5, serum A 9, 1/10,000",229 OD × 10^3
same,optical density at 492 nm,"Table 5, serum A11, 1/1000",2108 OD × 10^3
same,optical density at 492 nm,"Table 5, serum A11, 1/10,000",343 OD × 10^3
same,optical density at 492 nm,"Table 5, serum A12, 1/10,000",598 OD × 10^3
same,optical density at 492 nm,"Table 5, serum A13, 1/10,000",1247 OD × 10^3
same,optical density at 492 nm,"Table 5, serum A14, 1/1000",998 OD × 10^3
same,optical density at 492 nm,"Table 5, serum A14, 1/10,000",103 OD × 10^3
same,optical density at 492 nm,"Table 5, serum A15, 1/10,000",715 OD × 10^3
same,optical density at 492 nm,"Table 5, serum A19, 1/10,000",594 OD × 10^3
same,optical density at 492 nm,"Table 5, serum A21, 1/1000",993 OD × 10^3
same,optical density at 492 nm,"Table 5, serum A21, 1/10,000",123 OD × 10^3
same,optical density at 492 nm,"Table 5, serum A22, 1/1000",876 OD × 10^3
same,optical density at 492 nm,"Table 5, serum A22, 1/10,000",129 OD × 10^3
same,optical density at 492 nm,"Table 5, serum A23, 1/10,000",774 OD × 10^3
same,reactivity towards HCV-positive sera,in words,little or no difference is observed in reactivity
